Like-named read-outs stand apart in the source and are kept apart here.
Assays:
Type in all cases: cell-based
[1] = test system: HCT116^MTAP Deletion cells; assay: Anti-proliferation assay on cells (CTG, 10 days), HCT116 MTAP Deletion
Method: (§1) HCT116^MTAD Deletion cells were from Pharmaron (China); HCT116 cells were from ATCC; McCoy's 5A medium was purchased from Invitrogen (USA); penicillin-streptomycin and fetal bovine serum were purchased from Gibco (USA); a 384-well plate was purchased from PerkinElmer (USA); and Cell-Titer Glo reagent was purchased from Promega (USA).
(§2) Compound dissolution: All the compounds were dissolved in dimethyl sulfoxide (DMSO) and then stored. The compounds were stored at room temperature in a dry condition for 3 months for short term storage or at −20 °C for long term storage.
(§3) The cells were cultured strictly in accordance with ATCC requirements. The cell culture medium (McCoy's 5A medium+10% fetal bovine serum+1% penicillin+streptomycin) was transferred to a 15 mL centrifuge tube and centrifuged at 1000 rpm for 5 min. The supernatant was removed. The cells were resuspended with complete culture medium, inoculated into a culture dish at the required density, and cultured in an incubator at 37 °C, 95% humid air, and 5% carbon dioxide. The culture medium was replenished or the cells were passaged every 2-3 days depending on the cell growth condition.
(§4) When the confluency of cells in the culture dish reached about 90%, the cells were washed twice with PBS, and then treated with trypsin to become single cells. The cells were counted, and 40 μl of the cells was inoculated into each well of a 384-well plate (50 cells/well). The plate was equilibrated at 37 °C and 5% carbon dioxide for 10 to 15 minutes. The compounds were injected into the 384-well plate using Echo550, and positive control and negative control (0.1% DMSO) were set up. Each compound was subjected to a 3-fold dilution, resulting in 10 concentration gradients, in duplicate, and the content of DMSO was 0.1%. The 384-well plate was incubated in a cell culture incubator for 10 days.
(§5) Then, 40 μl of cell proliferation assay reagent (CTG) was added to the 384-well plate, and the plate was shaken to mix well. Then, the 384-well plate was incubated at 37 °C and 5% carbon dioxide in the dark for 30 minutes. The data were read using the Envision multifunctional microplate reader. […] According to the different drug concentrations and their corresponding inhibition rates, the GI50 curve was drawn using GraphPad 8.0 software. The data were analyzed, and the final GI50 value was obtained.

[2] = molecular target: T1, cellular SDMA in HCT116^MTAP Deletion cells (Homo sapiens, UniProt O14744); assay: In-Cell Western Assay of cellular SDMA, HCT116 MTAP Deletion; conditions: 96 hours, read-out: SDMA inhibition IC50 in HCT116^MTAP Deletion
T1 construct: in-cell Western of symmetric dimethylarginine
T1 sequence (O14744 whole entry, stated change not applied): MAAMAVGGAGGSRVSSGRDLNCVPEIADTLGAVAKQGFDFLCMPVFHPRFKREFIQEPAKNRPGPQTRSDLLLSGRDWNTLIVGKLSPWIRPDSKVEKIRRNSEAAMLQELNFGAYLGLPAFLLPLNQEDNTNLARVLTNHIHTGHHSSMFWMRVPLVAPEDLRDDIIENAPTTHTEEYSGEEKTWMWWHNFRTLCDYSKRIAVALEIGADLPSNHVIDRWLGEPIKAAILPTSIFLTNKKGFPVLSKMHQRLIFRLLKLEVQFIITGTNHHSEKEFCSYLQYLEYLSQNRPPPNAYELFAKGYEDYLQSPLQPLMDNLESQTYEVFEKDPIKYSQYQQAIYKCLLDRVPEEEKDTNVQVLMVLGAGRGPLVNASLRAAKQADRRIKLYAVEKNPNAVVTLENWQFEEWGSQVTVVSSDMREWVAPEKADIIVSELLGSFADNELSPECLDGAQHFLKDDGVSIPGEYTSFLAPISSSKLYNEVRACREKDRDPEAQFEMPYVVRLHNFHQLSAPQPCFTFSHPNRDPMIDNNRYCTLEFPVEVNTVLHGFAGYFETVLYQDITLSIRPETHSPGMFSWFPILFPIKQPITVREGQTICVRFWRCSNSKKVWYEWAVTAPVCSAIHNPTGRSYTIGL
T1 sequence (Q9BQA1 whole entry partner): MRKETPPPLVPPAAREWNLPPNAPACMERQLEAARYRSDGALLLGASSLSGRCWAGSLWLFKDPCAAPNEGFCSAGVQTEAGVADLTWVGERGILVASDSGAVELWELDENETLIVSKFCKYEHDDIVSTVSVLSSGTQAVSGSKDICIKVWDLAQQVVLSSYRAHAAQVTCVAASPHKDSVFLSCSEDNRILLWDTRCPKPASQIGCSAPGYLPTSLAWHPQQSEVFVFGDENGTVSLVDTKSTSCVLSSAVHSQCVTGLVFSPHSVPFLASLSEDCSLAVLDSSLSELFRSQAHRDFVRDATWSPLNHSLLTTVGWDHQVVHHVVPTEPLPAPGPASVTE
Excerpt: (§6) HCT116^MTAPD Deletion cells were from Horizon; HCT116 cells were from ATCC; RPMI-1640 medium was purchased from ATCC (USA); penicillin-streptomycin was purchased from Gibco (USA); fetal bovine serum was purchased from ExCell; 96-well plate was purchased from Corning (USA); Symmetric Di-Methyl Arginine Motif [sdme-RG]antibody was purchased from CST (USA); IRDye 800CW Goat anti-Rabbit IgG secondary antibody was purchased from LI-COR (USA), and CellTag 700 stain was purchased from LI-COR (USA).
(§7) Compound dissolution: All the compounds were dissolved in dimethyl sulfoxide (DMSO) and then stored. The compounds were stored at −20 °C for long term storage.
as §3, with “(RPMI-1640” for “(McCoy's 5A”, “medium+10%” for “medium+10% fetal bovine”
When the confluency of cells in the culture dish reached about 90%, the cells were washed twice with PBS, and then digested with trypsin. 100 μl of the cells was inoculated into each well of a 96-well plate (800 cells/well). The plate was incubated overnight in a 37 °C and 5% CO2 incubator. 50 μL of 3× final concentration of a compound was added to the cell culture plate. Each compound was subjected to a 3-fold dilution, resulting in 10 concentration gradients, in duplicate, and the final concentration of DMSO was 0.5%. The plate was incubated in a 37 °C and 5% CO2 incubator for 96 hours.
150 μL of 8% paraformaldehyde was added to each well, and the plate was incubated at room temperature for 15 minutes. The supernatant was discarded. The plate was washed with PBS, and 200 μL of freshly prepared 1× Permeabilization buffer was added to each well. The plate was incubated at room temperature for 30 minutes. The supernatant was discarded. 200 μL of 1× Blocking buffer was added to each well, and the plate was incubated at room temperature for 2 hours. The supernatant was discarded. 50 μL of primary antibody (CST, 1× Incubation buffer 1:500 dilution) was added to each well, and the plate was incubated at 4 °C overnight. The supernatant was discarded. 250 μL of 1× Washing buffer was added to each well, and the plate was washed three times. 50 μL of secondary antibody (IRDye 800CW Goat anti-Rabbit IgG and CellTag 700 dye, 1:800 and 1:500 diluted in Incubation buffer) was added to each well, and the plate was incubated at room temperature for 1 hour. The supernatant was discarded. The plate was washed with 1× Washing buffer. Signals were detected using Licor Odyssey CLX. […] According to the different drug concentrations and their corresponding inhibition rates, the IC50 curve was drawn using GraphPad 8.0 software. The data were analyzed, and the final IC50 value was obtained.

[3] = test system: cellular SDMA in HCT116 cells; assay: In-Cell Western Assay of cellular SDMA, HCT116; conditions: Homo sapiens, HCT-116, 96 hours, read-out: SDMA inhibition IC50 in HCT116
Excerpt: as §6, §7
as §3, with “(RPMI-1640” for “(McCoy's 5A”, “medium+10%” for “medium+10% fetal bovine”, “The culture medium was replenished or the cells were passaged every 2-3 days depending on the cell growth condition.” left out
150 μL of 8% paraformaldehyde was added to each well, and the plate was incubated at room temperature for 15 minutes. […] Signals were detected using Licor Odyssey CLX. […] The data were analyzed, and the final IC50 value was obtained.

[4] = test system: HCT116 cells (HCT116^MTAP WT); assay: Anti-proliferation assay on cells (CTG, 10 days), HCT116 (MTAP WT); conditions: for Selectivity multiple of HCT116^MTAP WT GI50/HCT116^MTAP Deletion GI50: ratio HCT116 MTAP WT GI50 / HCT116 MTAP Deletion GI50; for selectivity (HCT116 vs HCT116^MTAP Deletion GI50): 14400 min; for GI50: Homo sapiens, HCT-116, HCT116 (MTAP WT)
Method: as §1, §2, §3, §4, §5

[5] = anti-proliferative activity, HCT116 MTAP Deletion, 10 days, class symbols, read-out: HCT116^MTAP Deletion GI50
[6] = Homo sapiens, HCT-116, 240 h, anti-proliferative activity, HCT116 MTAP Deletion, 10 days, class symbols, read-out: HCT116^MTAP Deletion GI50
[7] = Homo sapiens, HCT-116, HCT116 MTAP Deletion, read-out: GI50 for HCT116^MTAP Deletion

CN(C(=O)C(=O)Nc1cnc(N)c2c1cnn2C)C1COc2cc(C(F)(F)F)ccc21 (single isomer, unassigned) [Example 112-P1]
GI50 [1, 5]: ≤ 10 nM
IC50 [2]: ≤ 10 nM
IC50 [3]: 100 to 1000 nM

CN(C(=O)C(=O)Nc1cnc(N)c2c1cnn2C)C1COCc2cc(Cl)c(Cl)cc21 (single isomer, unassigned) [Example 163-P1]
Selectivity multiple of HCT116^MTAP WT GI50/HCT116^MTAP Deletion GI50 [4]: 94

Cc1cc(NC(=O)C(=O)N(Cc2ccc(C(F)(F)F)cn2)C(C)(C)C)cnc1N [Example 33]
selectivity (HCT116 vs HCT116^MTAP Deletion GI50) [4]: more than 300 times
GI50 [4]: 1000 to 10000 nM
GI50 [1, 6]: 1000 to 10000 nM
GI50 [1, 7]: ≤ 100 nM

C[C@H](c1ncccn1)N(Cc1ccc(C(F)(F)F)cn1)C(=O)C(=O)Nc1cnc(N)c2cnn(C)c12 [Example 34]
selectivity (HCT116 vs HCT116^MTAP Deletion GI50) [4]: more than 300 times
GI50 [4]: 1000 to 10000 nM
GI50 [1, 6]: 100 to 1000 nM
GI50 [1, 7]: ≤ 100 nM

CN(C(=O)C(=O)Nc1cnc(N)c2c1cnn2C)C1COc2cc(C(F)(F)F)ccc21 (stereo not shown) [Example 89]
Selectivity multiple of HCT116^MTAP WT GI50/HCT116^MTAP Deletion GI50 [4]: 160
GI50 [1, 6]: ≤ 10 nM

CN(C(=O)C(=O)Nc1cnc(N)c2c1cnn2C)C1COCc2cc(Br)ccc21 (stereo not shown) [Example 94]
GI50 [1, 6]: ≤ 10 nM

CN(C(=O)C(=O)Nc1cnc(N)c2c1cnn2C)C1COCc2cc(-c3cnn(C)c3)ccc21 (stereo not shown) [Example 99]
GI50 [1, 6]: ≤ 10 nM

CN(C(=O)C(=O)Nc1cnc(N)c2c1cnn2C)C1COCc2cc(C3=CCOCC3)ccc21 (stereo not shown) [Example 100]
GI50 [1, 6]: ≤ 10 nM

CN(C(=O)C(=O)Nc1cnc(N)c2c1cnn2C)C1COCc2cc(C(F)(F)F)ccc21 (stereo not shown) [Example 106-P1]
GI50 [1, 6]: 10 to 100 nM

CN(C(=O)C(=O)Nc1cnc(N)c2c1cnn2C)C1COCc2cc(C(F)(F)F)ccc21 (stereo not shown) [Example 106-P2]
Selectivity multiple of HCT116^MTAP WT GI50/HCT116^MTAP Deletion GI50 [4]: 169
GI50 [1, 5]: ≤ 10 nM
IC50 [2]: ≤ 10 nM
IC50 [3]: 10 to 100 nM

[2H]C([2H])([2H])N(C(=O)C(=O)Nc1cnc(N)c2c1cnn2C)C1COCc2cc(C(F)(F)F)ccc21 (stereo not shown) [Example 109]
GI50 [1, 6]: ≤ 10 nM

CN(C(=O)C(=O)Nc1cnc(N)c2c1cnn2C)C1COCc2cc(-c3cnn(C)c3)ccc21 (stereo not shown) [Example 124-P1]
GI50 [1, 5]: ≤ 10 nM

CN(C(=O)C(=O)Nc1cnc(N)c2c1cnn2C)C1COCc2cc(C3=CCOCC3)ccc21 (stereo not shown) [Example 132-P1]
GI50 [1, 5]: ≤ 10 nM
IC50 [2]: ≤ 10 nM

Cc1ncc(-c2ccc3c(c2)COCC3N(C)C(=O)C(=O)Nc2cnc(N)c3c2cnn3C)s1 (stereo not shown) [Example 135]
GI50 [1, 6]: ≤ 10 nM
IC50 [2]: ≤ 10 nM

CN(C(=O)C(=O)Nc1cnc(N)c2c1cnn2C)C1COCc2cc(-c3ccnn3C)ccc21 (stereo not shown) [Example 137]
GI50 [1, 6]: ≤ 10 nM

CN(C(=O)C(=O)Nc1cnc(N)c2c1cnn2C)C1COCc2nc(C(F)(F)F)ccc21 (stereo not shown) [Example 152-P2]
IC50 [2]: 10 to 100 nM

CN(C(=O)C(=O)Nc1cnc(N)c2c1cnn2C)C1COCc2cc(-c3ccnn3C)ccc21 (stereo not shown) [Example 156-P1]
IC50 [2]: ≤ 10 nM

CN(C(=O)C(=O)Nc1cnc(N)c2c1cnn2C)C1COCc2cc(C3=CCC(F)(F)CC3)ccc21 (stereo not shown) [Example 157]
GI50 [1, 6]: ≤ 10 nM

CN(C(=O)C(=O)Nc1cnc(N)c2c1cnn2C)C1COc2nc(C(F)(F)F)ccc21 (stereo not shown) [Example 159]
GI50 [1, 6]: 100 to 1000 nM

CN1CC=C(c2ccc3c(c2)COCC3N(C)C(=O)C(=O)Nc2cnc(N)c3c2cnn3C)CC1 (stereo not shown) [Example 160]
GI50 [1, 6]: 10 to 100 nM

CN(C(=O)C(=O)Nc1cnc(N)c2c1cnn2C)C1COc2cc(-c3ccnn3C)ccc21 (stereo not shown) [Example 161]
GI50 [1, 6]: ≤ 10 nM

CN(C(=O)C(=O)Nc1cnc(N)c2c1cnn2C)C1COCc2cc(Cl)c(Cl)cc21 (stereo not shown) [Example 163]
GI50 [1, 6]: ≤ 10 nM

[2H]C([2H])([2H])n1ncc2c(NC(=O)C(=O)N(C)C3COc4cc(C(F)(F)F)ccc43)cnc(N)c21 (stereo not shown) [Example 173]
GI50 [1, 6]: 10 to 100 nM

CN(C(=O)C(=O)Nc1cnc(N)c2c1cnn2C)C1COc2cc(-c3ccnn3C)ccc21 (stereo not shown) [Example 192-P1]
IC50 [2]: ≤ 10 nM

CN(C(=O)C(=O)Nc1cnc(N)c2c1cnn2C)C1COc2cc(-c3cnn(C4CC4)c3)ccc21 (stereo not shown) [Example 211]
GI50 [1, 6]: ≤ 10 nM

CN(C(=O)C(=O)Nc1cnc(N)c2c1cnn2C)C1COc2cc(-c3ccnn3C3CC3)ccc21 (stereo not shown) [Example 212]
GI50 [1, 6]: ≤ 10 nM

CN(C(=O)C(=O)Nc1cnc(N)c2c1cnn2C)C1COc2cc(-c3cnn(C(F)(F)F)c3)ccc21 (stereo not shown) [Example 213]
GI50 [1, 6]: ≤ 10 nM

Cc1ccc2c(c1)OCC2N(C)C(=O)C(=O)Nc1cnc(N)c2c1cnn2C (stereo not shown) [Example 233]
GI50 [1, 6]: 10 to 100 nM

CN(C(=O)C(=O)Nc1cnc(N)c2c1cnn2C)C1COc2cc(-c3cnc(C4CC4)s3)ccc21 (stereo not shown) [Example 236]
GI50 [1, 6]: ≤ 10 nM

From US20260345603A1, “PRMT5 INHIBITORS” (Beijing Earthwise Technology Co., Ltd., priority 2022, published 2026)
